# Assay results taken from patent US20090215743A1, “Tricyclic benzazepine derivatives and their use” (Bayer HealthCare AG, priority 2004, published 2009).
# System: sterol biosynthesis
# Assay: Inhibition of squalene and cholesterol synthesis in the liver of mice (sterol biosynthesis)
# Assay type: in vivo
# Settings: male NMRI mice, 3 mg/kg p.o., 14C-mevalonolactone, liver lipid fraction
# Method: Male NMRI mice are kept on normal rodent diet (NAFAG 3883) in metabolism cages. The light/dark cycle comprises 12 hours, from 06.00 to 18.00 and from 18.00 to 06.00. The animals are employed with a body weight of between 25 g and 40 g in groups of 8-10 animals in the experiments. Feed and drinking water are available to the animals ad libitum.
# The substances are, according to their solubility, administered orally in aqueous tragacanth suspension (0.5%) or in Solutol HS15/saline solution (20:80) by gavage in a volume of 10 ml/kg of body weight or else injected subcutaneously in Solutol HS15/saline solution (20:80) or DMSO/saline solution (20:80). The corresponding control groups receive only the corresponding formulating agent without active substance. One or two hours after administration of the substance, the animals receive intraperitoneal injections of radiolabelled ^14C-mevalonolactone. One or two hours after the ^14C-mevalonolactone injection, or 24 hours after the administration of substance, the animals are sacrificed, the abdominal cavity is opened, and liver tissue is removed. Immediately after removal, the tissue is dried on the surface, weighed and homogenized in isopropanol. The further processing and extraction of the synthesized squalene and its secondary products takes place by a method of I. Duncan et al. (J. Chromatogr. 1979, 162), modified by H. Bischoff et al. (Atherosclerosis 1997, 135).
# The extracted lipid fraction is taken up in 1 ml of isopropanol, transferred into scintillation vials, made up with 15 ml of Ultima Gold® scintillation fluid (Packard) and counted in a liquid scintillation counter (Beckmann Coulter LS 6500).
# After calculation of the specific ^14C activity of the lipid fraction (dpm/g of liver tissue), the rate of synthesis of the radiolabelled ^14C squalene and of the ^14C secondary metabolites of the animals treated with the active substance is compared with the rate of synthesis of the radiolabelled ^14C squalene and of the ^14C secondary metabolites of the control animals treated only with formulating agent. A reduction in the rate of synthesis by ≧30% compared with the rate of synthesis for the control animals (=100%) is regarded as pharmacologically active if the statistical assessment by Student's t test results in a p value of <0.05.
row,Structure (SMILES),Inhibition relative to the untreated control group [%]
1,"COc1cccc(C2OC(CC(=O)N3CCSC3)c3nnc(C(C)C)n3-c3ccc(Cl)cc32)c1OC (stereo not shown) [Example 41, 8-Chloro-6-(2,3-dimethoxyphenyl)-1-isopropyl-4-[2-oxo-2-(1,3-thiazolidin-3-yl)ethyl]-4H,6H-[1,2,4]triazolo[4,3-a][4,1]benzoxazepine]",81
2,"COc1cccc(C2OC(CC(=O)O)c3nnc(C(C)C)n3-c3ccc(Cl)cc32)c1OC (racemic) [Example 3, [8-Chloro-6-(2,3-dimethoxyphenyl)-1-isopropyl-4H,6H-[1,2,4]triazolo[4,3-a][4,1]benzoxazepin-4-yl]acetic acid]",81
3,"COc1cccc(C2OC(CC(=O)N3CCN(C(C)=O)CC3)c3nnc(C(C)C)n3-c3ccc(Cl)cc32)c1OC (stereo not shown) [Example 50, 4-[2-(4-Acetylpiperazin-1-yl)-2-oxoethyl]-8-chloro-6-(2,3-dimethoxyphenyl)-1-isopropyl-4H,6H-[1,2,4]triazolo[4,3-a][4,1]benzoxazepine]",75
4,"COc1cccc(C2OC(CC(=O)O)c3nnc(C(C)(C)CO)n3-c3ccc(Cl)cc32)c1OC (racemic) [Example 62-2, [8-Chloro-6-(2,3-dimethoxyphenyl)-1-(2-hydroxy-1,1-dimethylethyl)-4H,6H-[1,2,4]triazolo[4,3-a]-[4,1]benzoxazepin-4-yl]acetic acid]",77
